Publication doi:10.1101/2020.10.13.20211417v1 (medRxiv, 2020)

Legend:
Type in all cases: in vivo, human
[1] = Noncompartmental plasma pharmacokinetics of CN-105 in CATCH participants; conditions: for clearance / Vd / half-life: human, 1 mg/kg; for Vd: Vz
[2] = tested on: patients with acute primary supratentorial ICH; test: Adverse events and safety endpoints, CATCH trial
[3] = tested on: patients with acute primary supratentorial ICH; test: Hematoma volume from CT images
[4] = Related, Treatment Emergent Non-Serious AEs
[5] = Treatment Emergent Non-Serious AEs
[6] = non-serious TEAE events, Total, Total severity

Substance: Ac-VSRRR-NH2 [CN-105]
- Accumulation, mean (SD) ratio of AUCs ([1]; Dose 1:Dose 13, SD): 1.3 (0.4)
- CL ([1]; Maximum, N=6): 7.7 L/h
- Vz ([1]; Maximum, N=6): 56.8 L
- t1/2 ([1]; Maximum, N=6): 8.7 h
- λz,ss ([1]; Maximum, N=6): 0.3 h⁻¹
- λz,ss ([1]; Mean, N=6, SD 0.1, after last dose): 0.2 h⁻¹
- λz,ss ([1]; Median, N=6): 0.2 h⁻¹
- CL ([1]; Minimum, N=6): 4.6 L/h
- Vz ([1]; Minimum, N=6): 25.2 L
- t1/2 ([1]; Minimum, N=6): 2.3 h
- λz,ss ([1]; Minimum, N=6): 0.1 h⁻¹
- Mean (SD) maximum concentrations ([1]; dose 13, 1.0 mg/kg IV over 30 min every 6 h, plasma, LC-MS/MS, SD 1335.9): 5638.3 ng/mL
- clearance ([1]; plasma, intravenous): 122 mL/min
- Vd ([1]; plasma, intravenous, Mean, N=6, SD 12.1): 41.2 L
- Vd ([1]; plasma, intravenous, Median, N=6): 37.2 L
- half-life ([1]; plasma, intravenous, t1/2, Mean, N=6, SD 2.2, terminal phase): 4.5 h
- half-life ([1]; plasma, intravenous, t1/2, Median, N=6): 3.8 h
- clearance ([1]; plasma, iv): 113 mL/min
- participants experiencing treatment emergent SAEs ([2]; 9 of 38 participants): 24%
- participants experiencing nonfatal SAEs ([2]; 12 of 38 participants): 32%
- central nervous system (CNS) infection ([2]; 38 participants): No participants
- changes in electrocardiogram parameters ([2]; 38 participants): No participant experienced changes
- treatment emergent AE constipation, participants ([2]; 38 participants): 26%
- treatment emergent AE hypomagnesemia, participants ([2]; 38 participants): 18%
- treatment emergent AE hyponatremia, participants ([2]; 38 participants): 18%
- treatment emergent AE hypophosphatemia, participants ([2]; 38 participants): 21%
- treatment emergent AE leukocytosis, participants ([2]; 38 participants): 24%
- treatment emergent AE nausea, participants ([2]; 38 participants): 18%
- treatment emergent AE pain, participants ([2]; 38 participants): 29%
- treatment emergent AE pyrexia, participants ([2]; 38 participants): 16%
- # of Events ([2]; All Non-Serious AEs): 237
- # of Events, Mild ([2]; All Non-Serious AEs): 183
- # of Events, Moderate ([2]; All Non-Serious AEs): 51
- # of Events, Severe ([2]; All Non-Serious AEs): 3
- # of Subjects ([2]; All Non-Serious AEs): 31
- # of Subjects, Mild ([2]; All Non-Serious AEs): 30
- # of Subjects, Moderate ([2]; All Non-Serious AEs): 19
- # of Subjects, Severe ([2]; All Non-Serious AEs): 2
- participants with in-hospital neurological deterioration ([2]; Five of 38, increase of NIHSS>2 from baseline persisting more than 24 hours): 13%
- # of Events [2, 4]: 86
- # of Events, Mild [2, 4]: 73
- # of Events, Moderate [2, 4]: 13
- # of Events, Severe [2, 4]: 0
- # of Subjects [2, 4]: 16
- # of Subjects, Mild [2, 4]: 16
- # of Subjects, Moderate [2, 4]: 5
- # of Subjects, Severe [2, 4]: 0
- participants who died prior to 30-day follow up ([2]; Three of 38, in-hospital, related to primary disease): 8%
- # of Events [2, 5]: 230
- # of Events, Mild [2, 5]: 177
- # of Events, Moderate [2, 5]: 50
- # of Events, Severe [2, 5]: 3
- # of Subjects [2, 5]: 30
- # of Subjects, Mild [2, 5]: 29
- # of Subjects, Moderate [2, 5]: 19
- # of Subjects, Severe [2, 5]: 2
- participants receiving treatment for elevated intracranial pressure ([2]; Two of 38, both died in-hospital of brain herniation from index ICH): 5%
- SAE Drug administration error (Medication administration error), Relatedness ([2]; all SAEs, subject 101-003, Moderate, day 2-2, Recovered / Resolved): Unrelated
- SAE Pneumonia (Left upper lobe pneumonia), Relatedness ([2]; all SAEs, subject 101-004, Moderate, day 1-8, Recovered / Resolved): Related
- SAE Failure to thrive, Relatedness ([2]; all SAEs, subject 101-004, Moderate, day 23-57, Recovered / Resolved): Unrelated
- SAE Cerebral haemorrhage (Left Frontal IPH), Relatedness ([2]; all SAEs, subject 101-004, Severe, day 58-62, Recovered / Resolved): Related
- SAE Brain herniation (Cerebral herniation), Relatedness ([2]; all SAEs, subject 101-007, Severe, day 0-5, Fatal): Unrelated
- SAE Respiratory failure (Hypoxic Respiratory Failure), Relatedness ([2]; all SAEs, subject 101-008, Moderate, day 2-4, Recovered / Resolved): Related
- SAE Urinary tract infection, Relatedness ([2]; all SAEs, subject 101-013, Moderate, day 39-44, Recovered / Resolved): Unrelated
- SAE Pulmonary embolism, Relatedness ([2]; all SAEs, subject 101-015, Severe, day 22-32, Recovered / Resolved): Unrelated
- SAE Cerebral haemorrhage (Worsening of Intracerebral Hemorrhage), Relatedness ([2]; all SAEs, subject 101-018, Severe, day 0-6, Fatal): Unrelated
- SAE Dural arteriovenous fistula, Relatedness ([2]; all SAEs, subject 102-002, Moderate, day 1-1, Recovered / Resolved): Unrelated
- SAE Deep vein thrombosis (Left Popliteal Vein), Relatedness ([2]; all SAEs, subject 102-010, Severe, day 75-83, Recovered / Resolved): Unrelated
- SAE Respiratory distress, Relatedness ([2]; all SAEs, subject 103-001, Moderate, day 1-35, Recovered / Resolved): Unrelated
- SAE Brain herniation, Relatedness ([2]; all SAEs, subject 104-001, Severe, day 0-4, Fatal): Unrelated
- SAE Partial seizures (Focal Seizure), Relatedness ([2]; all SAEs, subject 106-002, Severe, day 8-18, Recovered / Resolved): Unrelated
- treatment emergent SAEs, number of events ([2]; deemed unlikely related to study drug): Eleven
- Grand Total ([2]; non-serious TEAE events, Total severity): 230 (100) N (%)
- Acute kidney injury [2, 6]: 4 (1.7) N (%)
- Agitation [2, 6]: 5 (2.2) N (%)
- Alcohol withdrawal syndrome [2, 6]: 1 (0.4) N (%)
- Anemia [2, 6]: 5 (2.2) N (%)
- Anxiety [2, 6]: 1 (0.4) N (%)
- Atelectasis [2, 6]: 1 (0.4) N (%)
- Atrial fibrillation [2, 6]: 1 (0.4) N (%)
- Azotemia [2, 6]: 1 (0.4) N (%)
- Bacteremia [2, 6]: 1 (0.4) N (%)
- Benign prostatic hyperplasia [2, 6]: 1 (0.4) N (%)
- Bladder catheterization [2, 6]: 1 (0.4) N (%)
- Blood phosphorus decreased [2, 6]: 1 (0.4) N (%)
- Bradycardia [2, 6]: 2 (0.9) N (%)
- Brain edema [2, 6]: 2 (0.9) N (%)
- Candida infection [2, 6]: 1 (0.4) N (%)
- Chest pain [2, 6]: 2 (0.9) N (%)
- Cognitive disorder [2, 6]: 1 (0.4) N (%)
- Confusional state [2, 6]: 1 (0.4) N (%)
- Constipation [2, 6]: 11 (4.8) N (%)
- Cough [2, 6]: 1 (0.4) N (%)
- Decubitus ulcer [2, 6]: 1 (0.4) N (%)
- Deep vein thrombosis [2, 6]: 1 (0.4) N (%)
- Dehydration [2, 6]: 1 (0.4) N (%)
- Delirium [2, 6]: 5 (2.2) N (%)
- Depressed mood [2, 6]: 3 (1.3) N (%)
- Depression [2, 6]: 1 (0.4) N (%)
- Diarrhea [2, 6]: 2 (0.9) N (%)
- Dysphagia [2, 6]: 3 (1.3) N (%)
- Dyspnea [2, 6]: 3 (1.3) N (%)
- Edema [2, 6]: 2 (0.9) N (%)
- Endotracheal intubation [2, 6]: 1 (0.4) N (%)
- Eustachian tube dysfunction [2, 6]: 1 (0.4) N (%)
- Exophthalmos [2, 6]: 1 (0.4) N (%)
- Fall [2, 6]: 5 (2.2) N (%)
- Flatulence [2, 6]: 2 (0.9) N (%)
- Gastrointestinal hemorrhage [2, 6]: 1 (0.4) N (%)
- Headache [2, 6]: 4 (1.7) N (%)
- Helicobacter infection [2, 6]: 1 (0.4) N (%)
- Hematocrit decreased [2, 6]: 1 (0.4) N (%)
- Hydrocephalus [2, 6]: 3 (1.3) N (%)
- Hyperchloremia [2, 6]: 2 (0.9) N (%)
- Hyperglycemia [2, 6]: 5 (2.2) N (%)
- Hyperlipidemia [2, 6]: 2 (0.9) N (%)
- Hypermagnesemia [2, 6]: 2 (0.9) N (%)
- Hypernatremia [2, 6]: 1 (0.4) N (%)
- Hypocalcemia [2, 6]: 5 (2.2) N (%)
- Hypoglycemia [2, 6]: 1 (0.4) N (%)
- Hypokalemia [2, 6]: 4 (1.7) N (%)
- Hypomagnesemia [2, 6]: 7 (3) N (%)
- Hyponatremia [2, 6]: 7 (3) N (%)
- Hypophosphatemia [2, 6]: 9 (3.9) N (%)
- Hypotension [2, 6]: 2 (0.9) N (%)
- Impulsive behaviour [2, 6]: 2 (0.9) N (%)
- Intracranial pressure increased [2, 6]: 2 (0.9) N (%)
- Lactic acidosis [2, 6]: 2 (0.9) N (%)
- Leukocytosis [2, 6]: 9 (3.9) N (%)
- Medical observation [2, 6]: 1 (0.4) N (%)
- Muscle spasticity [2, 6]: 1 (0.4) N (%)
- Musculoskeletal pain [2, 6]: 1 (0.4) N (%)
- Nasal congestion [2, 6]: 3 (1.3) N (%)
- Nausea [2, 6]: 7 (3) N (%)
- Neuralgia [2, 6]: 2 (0.9) N (%)
- Neurological decompensation [2, 6]: 1 (0.4) N (%)
- Pain [2, 6]: 12 (5.2) N (%)
- Partial seizures [2, 6]: 1 (0.4) N (%)
- Patella fracture [2, 6]: 1 (0.4) N (%)
- Pneumocephalus [2, 6]: 1 (0.4) N (%)
- Pneumonia [2, 6]: 4 (1.7) N (%)
- Pneumonia aspiration [2, 6]: 1 (0.4) N (%)
- Pneumothorax [2, 6]: 2 (0.9) N (%)
- Procedural pain [2, 6]: 1 (0.4) N (%)
- Pulmonary congestion [2, 6]: 1 (0.4) N (%)
- Pulmonary embolism [2, 6]: 1 (0.4) N (%)
- Pyrexia [2, 6]: 6 (2.6) N (%)
- Reflux gastritis [2, 6]: 1 (0.4) N (%)
- Respiratory failure [2, 6]: 1 (0.4) N (%)
- Scleral oedema [2, 6]: 1 (0.4) N (%)
- Scrotal irritation [2, 6]: 1 (0.4) N (%)
- Seizure [2, 6]: 2 (0.9) N (%)
- Sepsis [2, 6]: 1 (0.4) N (%)
- Sleep apnea syndrome [2, 6]: 1 (0.4) N (%)
- Somnolence [2, 6]: 1 (0.4) N (%)
- Staphylococcal infection [2, 6]: 1 (0.4) N (%)
- Subarachnoid haemorrhage [2, 6]: 2 (0.9) N (%)
- Tachycardia [2, 6]: 2 (0.9) N (%)
- Tachypnea [2, 6]: 3 (1.3) N (%)
- Thrombocytopenia [2, 6]: 3 (1.3) N (%)
- Thrombocytosis [2, 6]: 1 (0.4) N (%)
- Thrombosis [2, 6]: 1 (0.4) N (%)
- Tremor [2, 6]: 1 (0.4) N (%)
- Troponin increased [2, 6]: 1 (0.4) N (%)
- Urinary incontinence [2, 6]: 1 (0.4) N (%)
- Urinary retention [2, 6]: 4 (1.7) N (%)
- Urinary tract infection [2, 6]: 4 (1.7) N (%)
- Vomiting [2, 6]: 2 (0.9) N (%)
- Treatment emergent SAE Pneumonia (Left upper lobe pneumonia), Relatedness ([2]; subject 101-004, Moderate, day 1-8, Recovered / Resolved): Related
- Treatment emergent SAE Failure to thrive, Relatedness ([2]; subject 101-004, Moderate, day 23-57, Recovered / Resolved): Unrelated
- Treatment emergent SAE Cerebral haemorrhage (Left Frontal IPH), Relatedness ([2]; subject 101-004, Severe, day 58-62, Recovered / Resolved): Related
- Treatment emergent SAE Urinary tract infection, Relatedness ([2]; subject 101-013, Moderate, day 39-44, Recovered / Resolved): Unrelated
- Treatment emergent SAE Pulmonary embolism, Relatedness ([2]; subject 101-015, Severe, day 22-32, Recovered / Resolved): Unrelated
- Treatment emergent SAE Dural arteriovenous fistula, Relatedness ([2]; subject 102-002, Moderate, day 1-1, Recovered / Resolved): Unrelated
- Treatment emergent SAE Deep vein thrombosis (Left Popliteal Vein), Relatedness ([2]; subject 102-010, Severe, day 75-83, Recovered / Resolved): Unrelated
- Treatment emergent SAE Respiratory distress, Relatedness ([2]; subject 103-001, Moderate, day 1-35, Recovered / Resolved): Unrelated
- Treatment emergent SAE Partial seizures (Focal Seizure), Relatedness ([2]; subject 106-002, Severe, day 8-18, Recovered / Resolved): Unrelated
- Mean (SD) hematoma volume by CT ([3]; Day 1 after ICH): 25.1 (25.1) cm^3
- Mean (SD) hematoma volume by CT ([3]; Day 2 after ICH): 21.9 (24.9) cm^3
- Mean (SD) hematoma volume by CT ([3]; Day 5 after ICH): 19.7 (19.6) cm^3
- hematoma volumes versus 1:1 matched ERICH participants ([3]; Days 0, 1, 2, 5, box plots, descriptive): No difference
- participants with incidence of hemorrhage extension ([3]; Nine of 38, one with clinical deterioration): 24%
- Mean (SD) hematoma volume by CT ([3]; on admission): 22.8 (23.7) cm^3
